These results are taken from US8722849B2, “Polypeptides” (Novo Nordisk A/S, priority 2011, dated 2014).

The target of series [1] is T1, rat amylin 3(a) receptor (rat calcitonin(a) receptor + rat RAMP3) (Rattus norvegicus, UniProt P32214+Q9JJ73).
T1 construct: expressed in transfected cells; host or cells: BHK tk'ts 13
T1 sequence (P32214 25-479 isoform P32214-2 limits assumed): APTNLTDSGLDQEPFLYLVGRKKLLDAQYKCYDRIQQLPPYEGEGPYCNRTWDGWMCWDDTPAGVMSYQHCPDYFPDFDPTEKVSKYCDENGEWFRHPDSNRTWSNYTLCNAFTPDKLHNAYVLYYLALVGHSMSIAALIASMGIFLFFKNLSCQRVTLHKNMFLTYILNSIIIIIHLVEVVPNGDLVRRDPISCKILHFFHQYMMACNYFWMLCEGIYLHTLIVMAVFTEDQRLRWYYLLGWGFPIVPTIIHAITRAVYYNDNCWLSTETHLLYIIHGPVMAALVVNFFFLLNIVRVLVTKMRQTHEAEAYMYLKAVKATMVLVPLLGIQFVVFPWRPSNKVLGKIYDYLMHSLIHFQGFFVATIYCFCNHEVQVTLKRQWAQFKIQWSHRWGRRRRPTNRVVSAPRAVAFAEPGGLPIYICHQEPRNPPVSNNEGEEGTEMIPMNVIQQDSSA
T1 sequence (Q9JJ73 23-147 partner): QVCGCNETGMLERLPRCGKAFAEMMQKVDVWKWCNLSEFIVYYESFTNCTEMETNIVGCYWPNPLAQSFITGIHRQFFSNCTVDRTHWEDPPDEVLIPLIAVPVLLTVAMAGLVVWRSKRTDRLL
As to the kind of experiment: Assay (II)b functional cAMP FlashPlate assay, rat amylin receptor. The series is classed as cell-based. The note with it: Table 11. Put shortly: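 cAMP accumulation in transiently transfected BHK tk'ts 13 cells, 100.000 cells/well, expressing rat calcitonin(a) receptor or its RAMP3 co-expression form (amylin 3(a)): 30 min stimulation with IBMX, 24 hours post-transfection. Readout by competition of cellular versus radiolabelled cAMP in FlashPlates, scintillation counted after 3 h.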

In series [2] the target is T2, human calcitonin receptor (Homo sapiens, UniProt P30988).
T2 construct: expressed in transfected cells; host or cells: BHK570
T2 sequence (P30988 25-474): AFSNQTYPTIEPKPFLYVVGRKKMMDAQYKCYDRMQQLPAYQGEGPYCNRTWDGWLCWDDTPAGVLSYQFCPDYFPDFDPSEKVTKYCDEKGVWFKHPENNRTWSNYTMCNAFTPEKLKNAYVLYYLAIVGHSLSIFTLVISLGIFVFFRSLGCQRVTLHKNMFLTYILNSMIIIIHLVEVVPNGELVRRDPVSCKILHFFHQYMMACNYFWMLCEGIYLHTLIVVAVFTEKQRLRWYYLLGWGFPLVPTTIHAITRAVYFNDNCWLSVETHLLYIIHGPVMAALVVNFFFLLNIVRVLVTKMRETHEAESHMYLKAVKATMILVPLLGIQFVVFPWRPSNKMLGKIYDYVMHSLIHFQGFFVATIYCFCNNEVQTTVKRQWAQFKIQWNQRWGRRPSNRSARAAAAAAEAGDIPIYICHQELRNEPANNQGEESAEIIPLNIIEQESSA
Briefly: Assay (II)a functional CRE-luciferase assay, human calcitonin receptor. The series is classed as cell-based. The note with it: Table 7; human calcitonin (CTa) receptor.

Series [3] in a line: Assay (IV) determination of solubility. The series is classed as physicochemical. Put shortly: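 Solubility was profiled across pH 3.0–8.0 after 18 hours at room temperature: a ~500 nmol/ml aqueous polypeptide solution was diluted 1:1 into 100 mM glycylglycine or bistrispropane buffers. After centrifugation, HPLC gave the dissolved concentration.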
Series [4] has as its target T3, human amylin receptor (amylin 3(a) receptor: human calcitonin receptor + RAMP-3) (Homo sapiens, UniProt O60896+P30988).
T3 construct: expressed in transfected cells; host or cells: BHK570
T3 sequence (P30988 25-474): T2 sequence (P30988 25-474)
T3 sequence (O60896 24-148 partner): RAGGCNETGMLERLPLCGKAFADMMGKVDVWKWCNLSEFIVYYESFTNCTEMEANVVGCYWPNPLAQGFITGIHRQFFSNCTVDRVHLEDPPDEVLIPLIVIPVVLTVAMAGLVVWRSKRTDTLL
As to the kind of experiment: Assay (II)a functional CRE-luciferase assay, human amylin receptor. The format is cell-based. The note with it: Table 2; BHK amylin 3(a)-receptor/CRE-luc cells.

The mark [5] stands for this setting: bistrispropane buffer, pH 6, pH 6.0, read-out: Solubility pH 6.0.
Where [6] appears, read: bistrispropane buffer, pH 6.5, pH 6.5, read-out: Solubility pH 6.5.
Where [7] appears, read: bistrispropane buffer, pH 7, pH 7.0, 18 hours at room temperature, Table 3, read-out: Solubility pH 7.0.
Where [8] appears, read: bistrispropane buffer, pH 7, pH 7.0, Table 8, read-out: Solubility pH 7.0.
Where [9] appears, read: bistrispropane buffer, pH 7, pH 7.0, read-out: Solubility pH 7.0.
The mark [10] stands for this setting: bistrispropane buffer, pH 7.5, pH 7.5, read-out: Solubility pH 7.5.
Where [11] appears, read: bistrispropane buffer, pH 8, pH 8.0, read-out: Solubility pH 8.0.
Setting [12] is: glycylglycine buffer, pH 3, pH 3.0, read-out: Solubility pH 3.0.
Setting [13] is: glycylglycine buffer, pH 4, pH 4.0, 18 hours at room temperature, Table 2, read-out: Solubility pH 4.0.
The mark [14] stands for this setting: glycylglycine buffer, pH 4, pH 4.0, read-out: Solubility pH 4.0.
Setting [15] is: glycylglycine buffer, pH 5, pH 5.0, read-out: Solubility pH 5.0.

Values after ≈ are worked out from the molar mass of the structure shown. Like-named read-outs stand apart in the source and are kept apart here. Starred links: 1 amine or outer side, 2 acyl side, 3 side chain; linkers in the order of their positions; H or OH if unused. Positions of bridges follow the written chain, without caps; N, C: chain ends. Residues, ends and D or L forms follow the SMILES beside them. *: point of attachment. C20 diacid = O=C(O)CCCCCCCCCCCCCCCCCCC(=O)*; C18 diacid = O=C(O)CCCCCCCCCCCCCCCCC(=O)*; γGlu = O=C(O)[C@H](CCC(=O)[*:2])N[*:1] Bounds are passed on as bounds.

For orientation: EC50 means the concentration that produces a half-maximal response. As a reminder, the solubility is the dissolved amount per volume that the medium holds. On to `CC[C@H](C)[C@H](NC(=O)[C@@H]1CCCN1C(=O)CNC(=O)[C@H](Cc1ccccc1)NC(=O)[C@H](CC(N)=O)NC(=O)[C@H](CC(N)=O)NC(=O)[C@H](CO)NC(=O)[C@H](CO)NC(=O)[C@H](Cc1c[nH]cn1)NC(=O)[C@H](CCCNC(=N)N)NC(=O)[C@H](CC(C)C)NC(=O)[C@H](Cc1ccccc1)NC(=O)[C@H](CCC(=O)O)NC(=O)[C@H](C)NC(=O)[C@H](CC(C)C)NC(=O)[C@H](CCCNC(=N)N)NC(=O)[C@H](CCC(N)=O)NC(=O)[C@@H](NC(=O)[C@H](C)NC(=O)[C@@H]1CSSC[C@H](NC(=O)[C@H](CCCCN)NC(=O)[C@H](CCC(=O)O)NC(=O)CC[C@H](NC(=O)CCCCCCCCCCCCCCCCC(=O)O)C(=O)O)C(=O)N[C@@H](CC(N)=O)C(=O)N[C@@H]([C@@H](C)O)C(=O)N[C@@H](C)C(=O)N[C@@H]([C@@H](C)O)C(=O)N1)[C@@H](C)O)C(=O)N[C@@H](CC(C)C)C(=O)N1CCC[C@H]1C(=O)N1CCC[C@H]1C(=O)N[C@H](C(=O)N[C@@H](CC(N)=O)C(=O)N[C@H](C(=O)NCC(=O)N[C@@H](CO)C(=O)N[C@@H](Cc1c[nH]cn1)C(=O)N[C@H](C(=O)N[C@@H](Cc1ccc(O)cc1)C(N)=O)[C@@H](C)O)C(C)C)[C@@H](C)O` [Example 62, N-alpha-[(S)-4-Carboxy-4-(17-carboxyheptadecanoylamino)butyryl]-Glu-[Glu14,Arg17,His35]-pramlintide] ({C18 diacid-γGlu}-EKCNTATCATQRLAEFLRHSSNNFGPILPPTNVGSHTY-NH2; disulfide 3-8 (inferred); C-terminus assumed), for which the EC50 is 0.281 nM in series [1], 1.07 nM in series [2] and 0.172 nM in series [4]. Besides, the solubility at 18 h in series [3] (setting [5]), in series [3] (setting [6]), in series [3] (setting [7]), in series [3] (setting [8]), in series [3] (setting [9]) and in series [3] (setting [10]) was > 200 µM each time. In addition, the solubility at 18 h in series [3] (setting [11]), in series [3] (setting [12]), in series [3] (setting [13]), in series [3] (setting [14]) and in series [3] (setting [15]) was > 200 µM each time.
With `CC[C@H](C)[C@H](NC(=O)[C@@H]1CCCN1C(=O)CNC(=O)[C@H](Cc1ccccc1)NC(=O)[C@H](CC(N)=O)NC(=O)[C@H](CC(N)=O)NC(=O)[C@H](CO)NC(=O)[C@H](CO)NC(=O)[C@H](Cc1c[nH]cn1)NC(=O)[C@H](Cc1c[nH]cn1)NC(=O)[C@H](CC(C)C)NC(=O)[C@H](Cc1ccccc1)NC(=O)[C@H](CCC(=O)O)NC(=O)[C@H](C)NC(=O)[C@H](CC(C)C)NC(=O)[C@H](CCCNC(=N)N)NC(=O)[C@H](CCC(N)=O)NC(=O)[C@@H](NC(=O)[C@H](C)NC(=O)[C@@H]1CSSC[C@H](NC(=O)[C@H](Cc2c[nH]cn2)NC(=O)[C@H](Cc2c[nH]cn2)NC(=O)[C@H](Cc2c[nH]cn2)NC(=O)CC[C@H](NC(=O)CCCCCCCCCCCCCCCCCCC(=O)O)C(=O)O)C(=O)N[C@@H](CC(N)=O)C(=O)N[C@@H]([C@@H](C)O)C(=O)N[C@@H](C)C(=O)N[C@@H]([C@@H](C)O)C(=O)N1)[C@@H](C)O)C(=O)N[C@@H](CC(C)C)C(=O)N1CCC[C@H]1C(=O)N1CCC[C@H]1C(=O)N[C@H](C(=O)N[C@@H](CC(N)=O)C(=O)N[C@H](C(=O)NCC(=O)N[C@@H](CO)C(=O)N[C@@H](Cc1c[nH]cn1)C(=O)N[C@H](C(=O)N[C@@H](Cc1ccc(O)cc1)C(N)=O)[C@@H](C)O)C(C)C)[C@@H](C)O` [Example 31, N-alpha-[(S)-4-Carboxy-4-(19-carboxynonadecanoylamino)butyryl]-His-His-[His1,Glu14,His17,His35]-pramlintide] ({C20 diacid-γGlu}-HHHCNTATCATQRLAEFLHHSSNNFGPILPPTNVGSHTY-NH2; disulfide 4-9 (inferred); C-terminus assumed), the EC50 in series [1] worked out at 0.2 nM; in series [2] it was 0.156 nM; in series [4], 0.164 nM. The solubility at 18 h in series [3] (setting [5]) is > 200 µM; in series [3] (setting [6]), 8 µM (≈ 38.1 µg/mL); in series [3] (setting [10]), 10 µM (≈ 47.6 µg/mL); in series [3] (setting [11]), 65 µM (≈ 310 µg/mL); in series [3] (setting [12]) it was > 200 µM; in series [3] (setting [13]), > 200 µM. Moreover, the solubility at 18 h in series [3] (setting [14]) and in series [3] (setting [15]) was > 200 µM each time.
Turning to `CC[C@H](C)[C@H](NC(=O)[C@@H]1CCCN1C(=O)CNC(=O)[C@H](Cc1ccccc1)NC(=O)[C@H](CC(N)=O)NC(=O)[C@H](CC(N)=O)NC(=O)[C@H](CO)NC(=O)[C@H](CO)NC(=O)[C@H](Cc1c[nH]cn1)NC(=O)[C@H](CCCNC(=N)N)NC(=O)[C@H](CC(C)C)NC(=O)[C@H](Cc1ccccc1)NC(=O)[C@H](CCC(=O)O)NC(=O)[C@H](C)NC(=O)[C@H](CC(C)C)NC(=O)[C@H](CCCNC(=N)N)NC(=O)[C@H](CCC(N)=O)NC(=O)[C@@H](NC(=O)[C@H](C)NC(=O)[C@@H]1CSSC[C@H](NC(=O)[C@H](CCCCN)NC(=O)CC[C@H](NC(=O)CCCCCCCCCCCCCCCCCCC(=O)O)C(=O)O)C(=O)N[C@@H](CC(N)=O)C(=O)N[C@@H]([C@@H](C)O)C(=O)N[C@@H](C)C(=O)N[C@@H]([C@@H](C)O)C(=O)N1)[C@@H](C)O)C(=O)N[C@@H](CC(C)C)C(=O)N1CCC[C@H]1C(=O)N1CCC[C@H]1C(=O)N[C@H](C(=O)N[C@@H](CC(N)=O)C(=O)N[C@H](C(=O)NCC(=O)N[C@@H](CO)C(=O)N[C@@H](CC(N)=O)C(=O)N[C@H](C(=O)N1CCC[C@H]1C(N)=O)[C@@H](C)O)C(C)C)[C@@H](C)O` [Example 53, N-alpha-[(S)-4-Carboxy-4-(19-carboxynonadecanoylamino)butyryl]-[Glu14,Arg17,Pro37]-pramlintide], in series [1], the EC50 stood at 0.348 nM. Besides, the solubility at 18 h in series [3] (setting [5]) was > 200 µM; in series [3] (setting [6]), > 200 µM; in series [3] (setting [7]) it was > 200 µM; in series [3] (setting [8]), > 200 µM; in series [3] (bistrispropane buffer, pH 7, pH 7.0, Table 9, read-out: Solubility pH 7.0), > 200 µM; in series [3] (setting [9]), > 200 µM. Besides, the solubility at 18 h is > 200 µM in series [3] (bistrispropane buffer, pH 7.5, pH 7.5, Table 9, read-out: Solubility pH 7.5); > 200 µM in series [3] (setting [10]); > 200 µM in series [3] (setting [11]); > 200 µM in series [3] (setting [12]); > 200 µM in series [3] (setting [13]); > 200 µM in series [3] (setting [14]). For the same compound, the solubility at 18 h in series [3] (setting [15]) was > 200 µM.
